From US20250145589A1, “PYRIDINE DERIVATIVE AND USE THEREOF” (SICHUAN HUIYU PHARMACEUTICAL CO., LTD., priority 2021, published 2025)
Where two headings read alike, the source gives them in different places.

Columns and labels:
Assay type in all cases: cell-based
[1] = tested on: MIA PaCa-2 cells (KRAS G12C mutant); test: MIA PaCa-2 cell anti-proliferation (CellTiter-Glo); conditions: MIA Paca-2 cells, 3 days, Table 7, read-out: MIA PaCa-2 (IC50)
How it was run: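 Viable-cell luminescence (CellTiter-Glo, ≥30 min at 25 °C) measured after a 3-day, 37 °C exposure to compounds at 9 points, 4-fold spaced, in DMEM containing 10% FBS plus 2.5% horse serum. IC50 derived versus no-inhibitor wells.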

[2] = tested on: NCI-H358-AMGR drug-resistant cell line; test: NCI-H358-AMGR drug-resistant cell proliferation inhibitory activity test; conditions: NCI-H358-AMGR drug-resistant cells, 3 days incubation, CellTiter-Glo
How it was run: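 Luminescent CellTiter-Glo read-out after 3-day, 37° C compound exposure (8 points, 5-fold series) of AMG510-resistant NCI-H358 cells plated at 4×10^3 per well.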

[3] = tested on: MIA PaCa-2-AMGR drug-resistant cell line; test: MIA PaCa-2-AMGR drug-resistant cell proliferation inhibitory activity test; conditions: MIA PaCa-2-AMGR drug-resistant cells, 3 days incubation, CellTiter-Glo
How it was run: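 MIA PaCa-2 line made resistant by stepwise AMG510 exposure up to 1 μM. Cells seeded at 4×10^3/well overnight, then treated with 8 concentrations (5-fold dilutions) for 3 days at 37° C, 5% CO2 in DMEM with 10% FBS + 2.5% horse serum. Viability by CellTiter-Glo luminescence; IC50 versus no-inhibitor control.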

SMILES	IC50 ([1]; Homo sapiens, 72 h)	IC50 ([2]; 72 h)	IC50 ([3]; 72 h)	IC50 [1]	IC50 [2]	IC50 [3]
COc1ncc(-c2ccc3ncnc(C4CCN(C(=O)/C=C/C(C)=O)CC4)c3c2)cc1NS(=O)(=O)c1c(F)cccc1Cl [Example 206, (E)-2-chloro-6-fluoro-N-(2-methoxy-5-(4-(1-(4-oxopent-2-enoyl)piperidin-4-yl)quinazolin-6-yl)pyridin-3-yl) benzenesulfonamide]	21 nM	9.5 nM	6.9 nM			
COc1ncc(-c2ccc3ncnc(C4=CCN(C(=O)/C=C/C(C)=O)CC4)c3c2)cc1NS(=O)(=O)c1ccccc1F [Example 200, (E)-2-fluoro-N-(2-methoxy-5-(4-(1-(4-oxopent-2-enoyl)-1,2,3,6-tetrahydropyridin-4-yl)quinazolin-6-yl)pyridin-3-yl)benzene-sulfonamide]	40.5 nM	6.5 nM	4.3 nM			
COc1ncc(-c2ccc3ncnc(N4CCC5(CC4)CN(C(=O)/C=C/C(C)=O)C5)c3c2)cc1NS(=O)(=O)c1ccc(F)cc1Cl [Example 171, (E)-2-chloro-4-fluoro-N-(2-methoxy-5-(4-(2-(4-oxopent-2-enoyl)-2,7-diazaspiro[3.5]nonan-7-yl)quinazolin-6-yl)pyridin-3-yl)benzene-sulfonamide]	12.6 nM	41.5 nM	32.9 nM			
COc1ncc(-c2ccc3ncnc(N4C5CCC4CN(C(=O)/C=C/C(C)=O)C5)c3c2)cc1NS(=O)(=O)c1ccc(F)cc1F [Example 144, 2,4-difluoro-N-(2-methoxy-5-(4-(3-((E)-4-oxopent-2-enoyl)-3,8-diazabicyclo[3.2.1]octan-8-yl)quinazolin-6-yl)pyridin-3-yl)benzenesulfonamide]	58.7 nM	43.1 nM	56.6 nM			
COc1ncc(-c2ccc3ncnc(N4CCN(C(=O)/C=C/C(C)=O)CC4)c3n2)cc1NS(=O)(=O)c1c(F)cccc1Cl [Example 225, (E)-2-chloro-6-fluoro-N-(2-methoxy-5-(4-(4-(4-oxopent-2-enoyl)piperazin-1-yl)pyrido[3,2-d]pyrimidin-6-yl)pyridin-3-yl) benzene-sulfonamide]	15.6 nM	34.9 nM	26 nM			
COc1ncc(-c2ccc3ncnc(N4CCN(C(=O)/C=C/C(C)=O)C[C@@H]4C)c3c2)cc1NS(=O)(=O)c1c(F)cccc1F [Example 46, (S,E)-2,6-difluoro-N-(2-methoxy-5-(4-(2-methyl-4-(4-oxopent-2-enoyl)piperazin-1-yl)quinazolin-6-yl)pyridin-3-yl) benzenesulfonamide]	91.9 nM	27.8 nM	77.4 nM			
COc1ncc(-c2ccc3ncnc(C4=CCN(C(=O)/C=C/C(C)=O)CC4)c3c2)cc1NS(=O)(=O)c1ccc(F)cc1F [Example 198, (E)-2,4-difluoro-N-(2-methoxy-5-(4-(1-(4-oxopent-2-enoyl)-1,2,3,6-tetrahydropyridin-4-yl)quinazolin-6-yl)pyridin-3-yl)benzenesulfonamide]	8.7 nM	22.1 nM	10.7 nM			
COc1ncc(-c2ccc3ncnc(N4CCN(C(=O)/C=C/C(C)=O)[C@H](C)C4)c3n2)cc1NS(=O)(=O)c1ccccc1F [Example 228, (R,E)-2-fluoro-N-(2-methoxy-5-(4-(3-methyl-4-(4-oxopent-2-enoyl)piperazin-1-yl)pyrido[3,2-d]pyrimidin-6-yl)pyridin-3-yl)benzene-sulfonamide]	34 nM	40.3 nM	13.5 nM			
COc1ncc(-c2ccc3ncnc(C4CCN(C(=O)/C=C/C(C)=O)CC4)c3c2)cc1NS(=O)(=O)c1c(F)cccc1F [Example 205, (E)-2,6-difluoro-N-(2-methoxy-5-(4-(1-(4-oxopent-2-enoyl)piperidin-4-yl)quinazolin-6-yl)pyridin-3-yl) benzenesulfonamide]	78.9 nM	15.2 nM	32.9 nM			
COc1ncc(-c2ccc3ncnc(N4CCN(C(=O)/C=C/C(C)=O)CC4)c3c2)cc1NS(=O)(=O)c1ccc(C)cc1F [Example 111]				44.4 nM	118 nM	90.1 nM
COc1ncc(-c2ccc3ncnc(N4CCN(C(=O)/C=C/C(C)=O)CC4)c3c2)cc1NS(=O)(=O)c1ccc(F)cc1Cl [Example 169, (E)-2-chloro-4-fluoro-N-(2-methoxy-5-(4-(4-(4-oxopent-2-enoyl)piperazin-1-yl)quinazolin-6-yl)pyridin-3-yl)benzenesulfonamide]	31.7 nM	36.2 nM	54.4 nM			
COc1ncc(-c2ccc3ncnc(N4CC5CCC(C4)N5C(=O)/C=C/C(C)=O)c3c2)cc1NS(=O)(=O)c1ccc(F)cc1Cl [Example 175, 2-chloro-4-fluoro-N-(2-methoxy-5-(4-(8-((E)-4-oxopent-2-enoyl)-3,8-diazabicyclo [3.2.1]octan-3-yl)quinazolin-6-yl)pyridin-3-yl)benzene-sulfonamide]	22.8 nM	58.1 nM	36.7 nM			
CCCC(=O)/C=C/C(=O)N1CCN(c2ncnc3ccc(-c4cnc(OC)c(NS(=O)(=O)c5ccc(F)cc5F)c4)cc23)CC1 [Example 17, (E)-2,4-difluoro-N-(2-methoxy-5-(4-(4-(4-oxohept-2-enoyl)piperazin-1-yl)quinazolin-6-yl)pyridin-3-yl)benzenesulfonamide]	87.9 nM	53.3 nM	106 nM			
COc1ncc(-c2ccc3ncnc(N4CCC5(CN(C(=O)/C=C/C(C)=O)C5)C4)c3c2)cc1NS(=O)(=O)c1c(F)cccc1F [Example 42]				284 nM	132 nM	185 nM
COc1ncc(-c2ccc3ncnc(N4CCN(C(=O)/C=C/C(C)=O)CC4)c3n2)cc1NS(=O)(=O)c1ccncc1F [Example 220, (E)-3-fluoro-N-(2-methoxy-5-(4-(4-(4-oxopent-2-enoyl)piperazin-1-yl)pyrido[3,2-d]pyrimidin-6-yl)pyridin-3-yl) pyridine-4-sulfonamide]	58.5 nM	207 nM	212 nM			
COc1ncc(-c2ccc3ncnc(N4CC5CCC(C4)N5C(=O)/C=C/C(C)=O)c3c2)cc1NS(=O)(=O)c1c(F)cccc1F [Example 145, 2,6-difluoro-N-(2-methoxy-5-(4-(8-((E)-4-oxopent-2-enoyl)-3,8-diazabicyclo[3.2.1]octan-3-yl)quinazolin-6-yl)pyridin-3-yl)benzenesulfonamide]	77.2 nM	223 nM	113 nM			
COc1ncc(-c2ccc3ncnc(N4CCN(C(=O)/C=C/C(C)=O)CC4)c3c2)cc1NS(=O)(=O)c1cccc(F)c1F [Example 90, (E)-2,3-difluoro-N-(2-methoxy-5-(4-(4-(4-oxopent-2-enoyl)piperazin-1-yl)quinazolin-6-yl)pyridin-3-yl)benzenesulfonamide]	51.9 nM	56.2 nM	106 nM			
COc1ncc(-c2ccc3ncnc(N4CCN(C(=O)/C=C/C(C)=O)CC4)c3c2)cc1NS(=O)(=O)c1c(F)cccc1F [Example 22, (E)-2,6-difluoro-N-(2-methoxy-5-(4-(4-(4-oxopent-2-enoyl)piperazin-1-yl)quinazolin-6-yl)pyridin-3-yl)benzenesulfonamide]	92.1 nM	47.9 nM	76.7 nM			
COc1ncc(-c2ccc3ncnc(N4CCN(C(=O)/C=C/C(C)=O)CC4)c3c2)cc1NS(=O)(=O)c1ccccc1C [Example 93, (E)-N-(2-methoxy-5-(4-(4-(4-oxopent-2-enoyl)piperazin-1-yl)quinazolin-6-yl)pyridin-3-yl)-2-methylbenzenesulfonamide]	39.4 nM	69.3 nM	114 nM			
